Results published in article PMC6010102, “N-thioalkylcarbazoles derivatives as new anti-proliferative agents: synthesis, characterisation and molecular mechanism evaluation” (Journal of Enzyme Inhibition and Medicinal Chemistry, 2018).

Columns and labels:
[1] = test system: MCF-7 human breast cancer cells; assay: MTT cell viability, MCF-7; type: cell-based; conditions: MCF7, 72 h exposure, mean ± SD, read-out: Antiproliferative activity IC50, MCF-7
Description: (§1) The six cell lines used in this work were purchased from American Type Culture Collection (ATCC, Manassas, VA). MCF-7 human breast cancer cells, oestrogen receptor (ER) positives, were maintained in Dulbecco’s Modified Eagle’s Medium/Nutrient Mixture F-12 Ham (DMEM/F12), supplemented with 5% foetal bovine serum (FBS) and 100 U/ml penicillin/streptomycin, as previously described. MDA-MB-231, human breast cancer cells, oestrogen receptor (ER) negative, were maintained in Dulbecco’s Modified Eagle’s Medium/Nutrient Mixture F-12 Ham (DMEM/F12), supplemented with 5% Newborn Calf Serum (NCS) and 100 U/ml penicillin/streptomycin. HeLa human epithelial cervix carcinoma cells, oestrogen receptor (ER) negative, and ISHIKAWA human endometrial adenocarcinoma cell, oestrogen receptor positive, were maintained in minimum essential medium (MEM), supplemented with 10% FBS, 100 U/ml penicillin/streptomycin and 1% non-essential amino acid. 3T3-L1 cells line of murine fibroblasts of embryonic type, were maintained in DMEM, supplemented with 10% NCS and 100 U/ml penicillin/streptomycin. MCF-10A human mammary epithelial cells were cultured in DMEM/F12 medium, supplemented with 5% horse serum (HS) (Eurobio, Les Ullis, Cedex, France), 100 U/ml penicillin/streptomycin, […] hydrocortisone, 20 ng/ml hEGF (human epidermal growth factor), 10 μg/ml insulin and […] cholera enterotoxin (Sigma-Aldrich, Milano, Italy). Cells were maintained at 37 °C in a humidified atmosphere of 95% air and 5% CO2 and periodically screened for contamination.
(§2) MDA-MB-231, MCF-7, HeLa and ISHIKAWA cells were grown in complete medium and, before being treated, they were serum deprived for 24 h, to allow cell cycle synchronisation. Then cells were grown in phenol red-free medium supplemented with 1% DCC (destran-coated charcoal treated) FBS, then treated with increasing concentrations (0.1, 1, 10, 20, 40, 100 µM) of each compound for 72 h. Compounds were dissolved in dimethylsulphoxide (DMSO) (Sigma, St. Louis, MO) and diluted in each cell medium. Untreated cells, used as a control, were added with DMSO alone (final concentration 0.1%). Cell viability was assessed using the 3-[4,5-dimethylthiazol-2-yl]-2,5-diphenyltetrazolium bromide reagent (MTT), according to the protocol from manufacturer (Sigma-Aldrich, Milan, Italy), as previously described[37] ^, [38]. For each sample, the mean absorbance, measured at 570 nm, was expressed as a percentage of the control and plotted versus drug concentration to determine for each cell line the IC50 values (namely, drugs concentrations able to reduce cell viability of 50% with respect to the control), using GraphPad Prism 5 Software (GraphPad Inc., San Diego, CA)[39]. Each experiment was carried out in quadruplicate. Standard deviations (SD) were shown.

[2] = test system: MDA-MB-231 human breast cancer cells; assay: MTT cell viability, MDA-MB-231; type: cell-based; conditions: 72 h exposure, mean ± SD, read-out: Antiproliferative activity IC50, MDA-MB-231
Description: as §1, §2

[3] = test system: ISHIKAWA human endometrial adenocarcinoma cells; assay: MTT cell viability, ISHIKAWA; type: cell-based; conditions: 72 h exposure, mean ± SD, read-out: Antiproliferative activity IC50, ISHIKAWA
Description: as §1, §2

[4] = test system: HeLa human epithelial cervix carcinoma cells; assay: MTT cell viability, HeLa; type: cell-based; conditions: 72 h exposure, mean ± SD, read-out: Antiproliferative activity IC50, HeLa
Description: as §1, §2

[5] = test system: MCF-10A human mammary epithelial cells; assay: MTT cell viability, MCF-10A; type: cell-based; conditions: non-tumoural cells, 72 h exposure, mean ± SD, read-out: Antiproliferative activity IC50, MCF-10a
Description: as §1, §2

[6] = test system: 3T3-L1 murine fibroblasts; assay: MTT cell viability, 3T3-L1; type: cell-based; conditions: Mus musculus, non-tumoural cells, 72 h exposure, mean ± SD, read-out: Antiproliferative activity IC50, 3T3-L1
Description: as §1, §2

hTopoII = hTopoII (Homo sapiens, UniProt P11388); assay: Human topoisomerase II decatenation assay; type: biochemical; conditions: 50 µM, reference molecule
Protocol: Human topoisomerase II decatenation assay: hTopoII decatenation assays were performed as reported in Iacopetta et al.[8].
Figure 2. hTopoII inhibition assay. kDNA was incubated with human Topoisomerase II in the absence (lane C, vehicle DMSO) or presence of compound 5c (lane 5c) or Ellipticine (lane E) at 10 and 50 µM, respectively. Lane K, kinetoplast DNA (kDNA).

Chain of hTopoII (P11388 whole entry): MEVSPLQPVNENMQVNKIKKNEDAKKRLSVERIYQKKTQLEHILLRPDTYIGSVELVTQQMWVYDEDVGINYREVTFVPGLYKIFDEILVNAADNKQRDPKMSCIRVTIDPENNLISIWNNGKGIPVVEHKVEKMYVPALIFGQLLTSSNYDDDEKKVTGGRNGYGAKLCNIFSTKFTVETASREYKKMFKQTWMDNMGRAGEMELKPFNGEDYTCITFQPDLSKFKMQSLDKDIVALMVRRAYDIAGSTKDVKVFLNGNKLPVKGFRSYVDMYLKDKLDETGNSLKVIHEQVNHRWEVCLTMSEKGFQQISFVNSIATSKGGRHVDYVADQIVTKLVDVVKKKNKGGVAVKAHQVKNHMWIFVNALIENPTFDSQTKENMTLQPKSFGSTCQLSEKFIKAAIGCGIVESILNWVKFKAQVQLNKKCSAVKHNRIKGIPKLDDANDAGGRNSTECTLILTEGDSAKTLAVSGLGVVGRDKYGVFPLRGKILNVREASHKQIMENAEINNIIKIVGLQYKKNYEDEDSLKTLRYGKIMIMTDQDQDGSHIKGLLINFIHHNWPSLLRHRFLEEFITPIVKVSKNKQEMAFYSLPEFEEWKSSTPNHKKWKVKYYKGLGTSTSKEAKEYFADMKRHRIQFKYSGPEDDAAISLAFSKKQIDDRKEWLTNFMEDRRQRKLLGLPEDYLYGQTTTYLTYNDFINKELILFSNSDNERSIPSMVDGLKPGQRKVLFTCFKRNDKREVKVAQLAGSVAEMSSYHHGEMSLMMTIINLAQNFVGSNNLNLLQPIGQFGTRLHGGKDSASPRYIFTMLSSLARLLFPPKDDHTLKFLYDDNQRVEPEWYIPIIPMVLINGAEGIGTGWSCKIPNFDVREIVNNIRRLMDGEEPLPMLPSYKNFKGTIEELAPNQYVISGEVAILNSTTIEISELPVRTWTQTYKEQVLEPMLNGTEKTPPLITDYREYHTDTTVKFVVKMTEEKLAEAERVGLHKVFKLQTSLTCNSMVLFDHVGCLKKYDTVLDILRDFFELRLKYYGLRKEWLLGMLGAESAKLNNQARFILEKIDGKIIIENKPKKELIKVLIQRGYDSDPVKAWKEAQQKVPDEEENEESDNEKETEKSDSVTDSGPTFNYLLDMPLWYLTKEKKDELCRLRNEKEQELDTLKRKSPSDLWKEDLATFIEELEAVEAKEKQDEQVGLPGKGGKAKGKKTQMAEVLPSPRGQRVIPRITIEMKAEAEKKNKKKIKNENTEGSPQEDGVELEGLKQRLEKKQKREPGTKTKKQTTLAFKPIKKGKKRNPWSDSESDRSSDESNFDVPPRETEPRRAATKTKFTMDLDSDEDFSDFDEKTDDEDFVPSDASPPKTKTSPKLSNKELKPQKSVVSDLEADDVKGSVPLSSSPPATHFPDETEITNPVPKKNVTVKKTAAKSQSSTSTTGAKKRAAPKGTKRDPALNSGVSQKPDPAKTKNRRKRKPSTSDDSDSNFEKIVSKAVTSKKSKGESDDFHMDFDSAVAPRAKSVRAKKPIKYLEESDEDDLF

SMILES	IC50 [1] [µM]	IC50 [2] [µM]	IC50 [3] [µM]	IC50 [4] [µM]	IC50 [5] [µM]	IC50 [6] [µM]	hTopoII inhibition (kDNA decatenation) (hTopoII)
SCCCCCCCn1c2ccccc2c2ccccc21 [5a, 7-(9H-Carbazol-9-yl)heptane-1-thiol]	50.4 ± 0.96	39.9 ± 0.52	19.2 ± 1.13	12.8 ± 0.62	> 100	> 100	
Cc1ccc2c(c1)c1c(C)ccc(C)c1n2CCCCCCCS [5b, 7-(1,4,6-Trimethyl-9H-carbazol-9-yl)-heptane-1-thiol]	> 100	> 100	> 100	> 100	> 100	> 100	
Cc1c2ccncc2c(C)c2c1[nH]c1ccccc12 [Ellipticine, reference compound]	1.25 ± 0.3	1.85 ± 0.15	1.7 ± 0.8	1.05 ± 0.5	1.2 ± 0.2	0.98 ± 0.7	complete inhibition

Further lines, with some results ahead:

IC50 [1] [µM]	IC50 [2] [µM]	IC50 [3] [µM]	IC50 [4] [µM]	SMILES	IC50 [5] [µM]	IC50 [6] [µM]	hTopoII inhibition (kDNA decatenation) (hTopoII)
> 100	> 100	> 100	> 100	SCCCCCCCCn1c2ccccc2c2ccccc21 [6a, 8-(9H-Carbazol-9-yl)octane-1-thiol]	> 100	> 100	
> 100	> 100	> 100	> 100	Cc1ccc2c(c1)c1c(C)ccc(C)c1n2CCCCCCCCS [6b, 8-(1,4,6-Trimethyl-9H-carbazol-9-yl)-octane-1-thiol]	> 100	> 100	
> 100	> 100	> 100	> 100	Cc1ccc(C)c2c1c1cc(Br)ccc1n2CCCCCCCCS [6c, 8-(6-Bromo-1,4-dimethyl-9H-carbazol-9-yl)-octane-1-thiol]	> 100	> 100	
> 100	> 100	> 100	> 100	SCCCCCCCCCn1c2ccccc2c2ccccc21 [7a, 9-(9H-Carbazol-9-yl)nonane-1-thiol]	> 100	> 100	
> 100	> 100	> 100	> 100	Cc1ccc2c(c1)c1c(C)ccc(C)c1n2CCCCCCCCCS [7b, 9-(1,4,6-Trimethyl-9H-carbazol-9-yl)-nonane-1-thiol]	> 100	> 100	
> 100	> 100	> 100	> 100	Cc1ccc(C)c2c1c1cc(Br)ccc1n2CCCCCCCCCS [7c, 9-(6-Bromo-1,4-dimethyl-9H-carbazol-9-yl)-nonane-1-thiol]	> 100	> 100	
